According to patent US8221975B2, “Method for detection of microorganism” (Morinaga Milk Industry Co., Ltd., priority 2007, dated 2012):
Where “and” joins values, the source holds several entries; their conditions need not be identical. Equal entries are not always repeated.

What was measured:
Type in all cases: cell-based
[1] = tested on: Salmonella enteritidis IIP 604; experiment: invA real-time PCR (378 bp) of EMA-treated Salmonella, Ct value
[2] = tested on: Enterobacter sakazakii ATCC 6538P; experiment: MMS-PCR of EMA-treated Enterobacter sakazakii, band intensity of final amplified product; settings: for bands of MMS gene amplified products (electrophoresis, FIG. 3): multi-step treatment (EMA 10 μg/ml-incubation-EMA 10 μg/ml)
Description: (§1) A Gram-negative bacterium, Enterobacter sakazakii (Enterobacter sakazakii ATCC […]; hereinafter, abbreviated as “sakazakii” in some cases), was cultured in brain-heart infusion (BHI) broth at 37° C., and 5 ml of the culture medium in the logarithmic growth phase was centrifuged at 8,000×g for 15 minutes at 4° C., followed by removal of the supernatant. 5 ml of physiological saline was added to the bacterial cells, and the whole was vigorously stirred and diluted 10-fold. Thus, a live cell suspension was prepared. […] The live cell suspension (1 ml) was placed in a 1.5-ml microtube, and the microtube was immersed in boiling water for 2 minutes and immediately cooled with ice water, to thereby prepare a injured cell suspension. The cells in the suspension probably include small numbers of live cells and dead cells but include mainly injured cells. Therefore, the cells are simply referred to as “injured cells”. Note that the method of the present invention is originally intended to detect live cells, and microorganism cells distinguished from live cells may be injured cells or dead cells. Ethidium monoazide (EMA) was added to the live cell suspension and injured cell suspension of sakazakii prepared above at a final concentration of 0, 10, 25, or 100 μg/ml, and the suspensions were allowed to stand under shading at 4° C. for 10 minutes. The suspensions were placed on ice and irradiated for 5 minutes with a 500-W visible light (FLOOD PRF: 100 […] ELECTRIC CO., LTD., wavelength: 500 to 700 nm) at a distance of 20 cm from the suspensions. Then, the suspensions were centrifuged at 15,000×g for 10 minutes at 4° C., and the supernatants were removed. An equal volume of physiological saline was added thereto, and the suspensions were stirred and centrifuged while cooling at 15,000×g for 10 minutes at 4° C., followed by removal of the supernatants. An equal volume of brain-heart infusion (BHI) broth was added thereto, and the suspensions were incubated at 37° C. for 2 hours. In the first EMA treatment, EMA was not added again to the live cell and injured cell suspensions having an EMA concentration of 0, while EMA was added again at a final concentration of 10 μg/ml to the live cell and injured cell suspensions having an EMA concentration of 10, 25, or 100 μg/ml. The suspensions were allowed to stand under shading at 4° C. for 10 minutes, placed on ice, and irradiated for 5 minutes with a 500-W visible light at a distance of 20 cm from the suspensions. Ethidium monoazide (EMA) was added to the live cell and injured cell suspensions of sakazakii prepared in the section “1.” at a final concentration of 0, 10, 25 or 100 μg/ml, and the suspensions were allowed to stand under shading at 4° C. for 10 minutes, placed on ice, and irradiated for 5 minutes with a 500-W visible light (FLOOD PRF: […] ELECTRIC CO., LTD., wavelength: 500 to 700 nm) at a distance of 20 cm from the suspensions. Microtubes including one of the live cell and injured cell suspensions of sakazakii treated in the sections 2-1) and 2-2) above were centrifuged at 15,000×g for 10 minutes at 4° C. The supernatants were removed, and 1 ml of physiological saline was added thereto. The resultant suspensions were stirred vigorously and centrifuged while cooling in the same way as above (washing treatment). One more washing treatment was performed in the same way, and the same amount of sterile water as the initial amount was added to the pellets, followed by vigorous stirring. PCR Master Mix (total volume: 25.25 μl) was prepared using Direct Buffer Mix (G&g SCIENCE CO., LTD., Yokohama, Kanagawa) capable of sequentially and automatically performing elution of chromosomal DNA from a bacterium and PCR reactions. […]

[3] = tested on: Salmonella enteritidis IIP 604; experiment: invA-PCR (378 bp) of EMA-treated Salmonella, band intensity of final amplified product; settings: for bands of invA gene amplified products (electrophoresis, FIG. 4): multi-step treatment (EMA 10 μg/ml-incubation-EMA 10 μg/ml)
[4] = tested on: Enterobacter sakazakii ATCC 6538P; experiment: ompA-PCR (469 bp) of EMA-treated Enterobacter sakazakii, band intensity of final amplified product; settings: multi-step treatment (EMA 10 μg/ml-incubation-EMA 10 μg/ml)
Description: as §1

Enterobacter sakazakii = experiment: as above
Description: as §1

[5] = single-step EMA 10 μg/ml, Injured cell
[6] = single-step EMA 10 μg/ml, Live cell
[7] = single-step EMA 25 μg/ml, Injured cell
[8] = single-step EMA 25 μg/ml, Live cell
[9] = single-step EMA 100 μg/ml, Injured cell
[10] = single-step EMA 100 μg/ml, Live cell
[11] = two-step EMA 10/10 μg/ml, Injured cell
[12] = two-step EMA 10/10 μg/ml, Live cell
[13] = two-step EMA 25/10 μg/ml, Injured cell
[14] = two-step EMA 25/10 μg/ml, Live cell
[15] = two-step EMA 100/10 μg/ml, Injured cell
[16] = two-step EMA 100/10 μg/ml, Live cell
[17] = multi-step: EMA 10 μg/ml + Incubation (37° C., 2 hr) + EMA 10 μg/ml, Injured cell
[18] = multi-step: EMA 10 μg/ml + Incubation (37° C., 2 hr) + EMA 10 μg/ml, Live cell

In the case of `CC[n+]1c(-c2ccccc2)c2cc(N=[N+]=[N-])ccc2c2ccc(N)cc21` [EMA, ethidium monoazide], the “Ct value (mean ± SD, N = 2)” value [1, 5] is reported as 31.6 ± 4.7, the “number of times of positive reaction in two PCR assays (i/2)” value (“number of times of positive reaction” for short) [1, 5] is reported as “(2/2)” and the “Ct value (mean ± SD, N = 2)” value [1, 6] is reported as 16.2 ± 0.4. The “number of times of positive reaction” value [1, 6] was “(2/2)”, the “Ct value (mean ± SD, N = 2)” value [1, 7] was “ND, ND^c,d” and the “number of times of positive reaction” value [1, 7] was “(0/2)”. The “Ct value (mean ± SD, N = 2)” value [1, 8] was 18.23±0.3 and 18.2 ± 0.3, the “number of times of positive reaction” value [1, 8] was “(2/2)” and the “Ct value (mean ± SD, N = 2)” value [1, 9] was “ND, ND”. For the same compound, the “number of times of positive reaction” value [1, 9] was “(0/2)”, the “Ct value (mean ± SD, N = 2)” value [1, 10] was 27.7±3.8 and 27.7 ± 3.6 and the “number of times of positive reaction” value [1, 10] was “(2/2)”. For the same compound, the “Ct value (mean ± SD, N = 2)” value [1, 11] was “ND, ND”, the “number of times of positive reaction” value [1, 11] was “(0/2)” and the “Ct value (mean ± SD, N = 2)” value [1, 12] was 16.0±3.5. The “number of times of positive reaction” value [1, 12] was “(2/2)”, the “Ct value (mean ± SD, N = 2)” value [1, 13] was “ND, ND” and the “number of times of positive reaction” value [1, 13] was “(0/2)”. For the same compound, the “Ct value (mean ± SD, N = 2)” value [1, 14] was 18.9 ± 2.2, the “number of times of positive reaction” value [1, 14] was “(2/2)” and the “Ct value (mean ± SD, N = 2)” value [1, 15] was “ND, ND”. The “number of times of positive reaction” value [1, 15] was “(0/2)”, the “Ct value (mean ± SD, N = 2)” value [1, 16] was 27.9 ± 3.0 and the “number of times of positive reaction” value [1, 16] was “(2/2)”. For the same compound, the “bands of MMS gene amplified products (electrophoresis, FIG. 3)” value ([2]; injured cells) was “no band was detected”, the “bands of MMS gene amplified products (electrophoresis, FIG. 3)” value ([2]; live cells) was “bands were clearly detected” and the Band Intensity [2, 17] was 0.000. The Band Intensity [2, 18] was 0.997, the Band Intensity [2, 5] was 0.855 and the Band Intensity [2, 6] was 0.845. The “bands of invA gene amplified products (electrophoresis, FIG. 4)” value ([3]; injured cells) was “no band was detected”, the “bands of invA gene amplified products (electrophoresis, FIG. 4)” value ([3]; live cells) was “bands were clearly detected” and the Band Intensity [3, 17] was 0.000. The Band Intensity [3, 18] was 0.742, the Band Intensity [3, 5] was 1.218 and the Band Intensity [3, 6] was 2.856. For the same compound, the “bands of ompA gene amplified products (electrophoresis, FIG. 2)” value ([4]; injured cells) was “no band was detected”, the “bands of ompA gene amplified products (electrophoresis, FIG. 2)” value ([4]; live cells) was “bands were clearly detected” and the “Band Intensity” value (Enterobacter sakazakii; [17]) was 0.000. For the same compound, the “Band Intensity” value (Enterobacter sakazakii; [18]) was 1.546, the “Band Intensity” value (Enterobacter sakazakii; [5]) was 0.502 and the “Band Intensity” value (Enterobacter sakazakii; [6]) was 1.690.
